Residue numbers refer to the chain shown, from its start. Values joined by “and” are separate entries in the source; they are usually repeats but may differ in a detail not shown here. Identical values can stand only once.
Assays:
[1] = biological target: T1, WT CES1 (Homo sapiens, UniProt P23141); test: PNPA hydrolysis by S9 of Flp-In-293 cells expressing WT CES1; type: biochemical; settings: S9 20 μg/ml, 37° C., 10 min, mean ± S.D. (n = 3)
T1 construct: inserting a stop codon after CES1A1 gene to yield the constructs expressing CES1 without V5-His tag; expressed in transfected cells
T1 sequence (P23141 18-567): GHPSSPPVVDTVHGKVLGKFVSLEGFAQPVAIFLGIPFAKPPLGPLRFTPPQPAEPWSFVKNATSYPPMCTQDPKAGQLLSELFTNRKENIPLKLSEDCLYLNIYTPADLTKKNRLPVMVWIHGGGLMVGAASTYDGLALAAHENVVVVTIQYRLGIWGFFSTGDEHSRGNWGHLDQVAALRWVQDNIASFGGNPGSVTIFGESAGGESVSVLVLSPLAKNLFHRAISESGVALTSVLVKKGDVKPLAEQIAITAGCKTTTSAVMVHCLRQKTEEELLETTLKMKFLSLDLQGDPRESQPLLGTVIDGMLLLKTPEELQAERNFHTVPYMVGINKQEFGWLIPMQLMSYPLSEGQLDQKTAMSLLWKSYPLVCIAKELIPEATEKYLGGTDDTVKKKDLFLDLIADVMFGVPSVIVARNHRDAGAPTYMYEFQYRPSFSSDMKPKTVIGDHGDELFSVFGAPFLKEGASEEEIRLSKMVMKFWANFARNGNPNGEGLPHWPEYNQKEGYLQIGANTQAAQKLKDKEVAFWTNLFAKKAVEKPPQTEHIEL
Excerpt: The desired plasmid was designed such that the recombinant CES1 would be expressed in mammalian cells with a V5-His tag to facilitate detection and purification. Additionally, another plasmid was generated by inserting a stop codon after CES1A1 gene to yield the constructs expressing CES1 without V5-His tag. […] Thus, only untagged CES1 and its associated mutants were used in the enzymatic hydrolysis study. Two constructs of CES1 mutations, p.Gly143Glu and p.Asp260fs, were generated using a site-directed mutagenesis assay. All constructs were subjected to DNA sequencing analysis to confirm that the desired plasmids were obtained. […]
(§1) After attaining approximately 95% confluence, cells were rinsed and harvested in PBS containing 10 mM HEPES (pH 7.4). […] The protein concentration was determined using a Pierce BCA assay kit (Rockford, Ill.).
(§2) The hydrolysis of PNPA was carried out in 96-well culture plates at 37° C. in a final volume of 200 μl. […] The formation of p-nitrophenol (PNP) from PNPA was determined by the absorbance at 405 nm following incubation at 37° C. for 10 min.
Thus, following the enzymatic assay, the values determined for spontaneous PNP and RA hydrolysis were subtracted from the total PNP and RA production. […]

[2] = biological target: T2, p.Asp260fs CES1 (Homo sapiens, UniProt P23141); test: PNPA hydrolysis by S9 of cells expressing p.Asp260fs CES1; type: biochemical
T2 construct: a frameshift mutation that alters residues 260-299 and causes early truncation at a premature stop codon; expressed in transfected cells
T2 sequence (P23141 with tags, fused parts or gaps): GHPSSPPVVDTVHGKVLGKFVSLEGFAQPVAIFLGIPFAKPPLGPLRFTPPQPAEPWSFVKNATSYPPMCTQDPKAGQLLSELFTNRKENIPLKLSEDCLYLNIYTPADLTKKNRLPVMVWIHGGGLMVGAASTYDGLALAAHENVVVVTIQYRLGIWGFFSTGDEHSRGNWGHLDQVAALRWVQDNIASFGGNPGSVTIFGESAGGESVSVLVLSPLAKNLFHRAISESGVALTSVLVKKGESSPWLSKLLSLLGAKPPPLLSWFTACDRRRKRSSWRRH
Excerpt: (§3) The desired plasmid was designed such that the recombinant CES1 would be expressed in mammalian cells with a V5-His tag to facilitate detection and purification. Additionally, another plasmid was generated by inserting a stop codon after CES1A1 gene to yield the constructs expressing CES1 without V5-His tag. […] Thus, only untagged CES1 and its associated mutants were used in the enzymatic hydrolysis study. Two constructs of CES1 mutations, p.Gly143Glu and p.Asp260fs, were generated using a site-directed mutagenesis assay. All constructs were subjected to DNA sequencing analysis to confirm that the desired plasmids were obtained. The identified CES1A1 plasmids (WT, p.Gly143Glu, and p.Asp260fs) were co-transfected with pOG44 plasmid at a ratio of 1:10 into Flp-In™-293 cells using […] (Invitrogen, Carlsbad, Calif.). Additionally, the self-ligated pcDNA5/FRT/V5-His-TOPO® vector was included as a vector control. Twenty-four hours after transfection, cells were washed with PBS and fresh complete medium (Dulbecco's modified Eagle's medium containing 10% fetal bovine serum) was added. Forty-eight hours after transfection, cells were split at a 1:10 ratio and cultured at 37° C. until cell attachment was observed. Culture medium was then removed and replenished with complete medium supplemented with the selecting antibiotic hygromycin B (100 μg/ml). The cell lines stably expressing WT, p.Gly143Glu, and p.Asp260fs CES1 were obtained only after a minimum 3-week selection process employing hygromycin B. Each generated cell line was identified by both expression detection and enzymatic function assays.
(§4) After attaining approximately 95% confluence, cells were rinsed and harvested in PBS containing 10 mM HEPES (pH 7.4). The cell suspension was then sonicated and the supernatant 9000 (S9) fraction was collected by centrifugation at 9000 g for 30 min at 4° C. The protein concentration was determined using a Pierce BCA assay kit (Rockford, Ill.).
as §2, with “μl. The S9 of cells expressing WT and mutant CES1 were diluted in reaction buffer (PBS containing 10 mM HEPES, pH 7.4) with a final S9 concentration of 20 μg/ml and preincubated at 37° C. for 10 min.” for “μl.”
(§5) Thus, following the enzymatic assay, the values determined for spontaneous PNP and RA hydrolysis were subtracted from the total PNP and RA production. […] All collected data were fit to the Michaelis-Menten equation, and kinetic parameters were calculated using nonlinear regression analysis with Graphpad Prism software (Graphpad Software Inc., San Diego, Calif.)

[3] = Spontaneous hydrolysis in reaction buffer; type: physicochemical; settings: PBS containing 10 mM HEPES, pH 7.4
Description: as §5

[4] = biological target: T3, p.Gly143Glu CES1 (Homo sapiens, UniProt P23141, G143E); test: PNPA hydrolysis by S9 of cells expressing p.Gly143Glu CES1; type: biochemical; settings: S9 20 μg/ml, 37° C., 10 min, mean ± S.D. (n = 3)
T3 construct: inserting a stop codon after CES1A1 gene to yield the constructs expressing CES1 without V5-His tag; expressed in transfected cells
T3 sequence (P23141 18-567 G143E/Y526T): T1 sequence (P23141 18-567) with G126E, Y509T
Excerpt: as §3, §4
as §2, with “μl. The S9 of cells expressing WT and mutant CES1 were diluted in reaction buffer (PBS containing 10 mM HEPES, pH 7.4) with a final S9 concentration of 20 μg/ml and preincubated at 37° C. for 10 min.” for “μl.”
as §5

[5] = biological target: T4, p.Gly143Glu CES1 (Homo sapiens, UniProt P23141, G143E/Y526T); test: as above; type: biochemical
T4 construct: inserting a stop codon after CES1A1 gene to yield the constructs expressing CES1 without V5-His tag; expressed in transfected cells
T4 sequence (P23141 18-567 G143E/Y526T): T1 sequence (P23141 18-567) with G126E, Y509T
Excerpt: as §3, §4
as §2, with “μl. The S9 of cells expressing WT and mutant CES1 were diluted in reaction buffer (PBS containing 10 mM HEPES, pH 7.4) with a final S9 concentration of 20 μg/ml and preincubated at 37° C. for 10 min.” for “μl.”
as §5

[6] = biological target: T3, p.Gly143Glu CES1; test: MPH hydrolysis to ritalinic acid by S9 of cells expressing p.Gly143Glu CES1 (HPLC); type: biochemical; settings: S9 500 μg/ml, even at very high S9 concentration (2 mg/ml); 37° C., 2 h
Excerpt: as §3, with “Forty-eight hours after transfection, cells were split at a 1:10 ratio and cultured at 37° C. until cell attachment was observed. Culture medium was then removed and replenished with complete medium supplemented with the selecting antibiotic hygromycin B (100 μg/ml). The cell lines stably expressing WT, p.Gly143Glu, and p.Asp260fs CES1 were obtained only after a minimum 3-week selection process employing hygromycin B. Each generated cell line was identified by both expression detection and enzymatic function assays.” left out
as §1
(§6) For the study of MPH hydrolysis, the reaction was conducted in 1.5 mL eppendorf tubes with a final S9 concentration of 0.5 mg/mL at a total volume of 100 μL. […] Concentrations of the primary phase I MPH metabolite produced via hydrolysis, ritalinic acid (RA), was determined utilizing an established HPLC method described below.
as §5, with “Calif.) […]” for “Calif.)”

[7] = Pharmacokinetic study of orally administered racemic MPH in normal volunteers; type: in vivo, human; settings: single oral 0.3 mg/kg racemic MPH, plasma
Description: Analysis of Pharmacokinetic, Hemodynamic, and Statistical Data. Standard pharmacokinetic analyses were applied to the MPH data using WinNonLin software (Pharsight, Mountainview, Calif.) and are described in a previous publication.^10 The AUC, Cmax, and t1/2 were analyzed using the Extreme Studentized Deviate (ESD) single-outlier procedure^12 to determine whether the parameter measurements for the slow metabolizer constituted true statistical outliers. For each parameter, the ESD procedure confirmed the measurement as an outlier at the p<0.01 level. Because this procedure is known to be conservative, the data from the aberrant metabolizer were reassessed using a similar procedure with respect to the normal participants only.

[8] = cited from earlier work
[9] = biological target: T2, p.Asp260fs CES1; test: MPH hydrolysis to ritalinic acid by S9 of cells expressing p.Asp260fs CES1 (HPLC); type: biochemical; settings: S9 500 μg/ml, even at very high S9 concentration (2 mg/ml); 37° C., 2 h
Excerpt: as §3, with “Forty-eight hours after transfection, cells were split at a 1:10 ratio and cultured at 37° C. until cell attachment was observed. Culture medium was then removed and replenished with complete medium supplemented with the selecting antibiotic hygromycin B (100 μg/ml). The cell lines stably expressing WT, p.Gly143Glu, and p.Asp260fs CES1 were obtained only after a minimum 3-week selection process employing hygromycin B. Each generated cell line was identified by both expression detection and enzymatic function assays.” left out
as §1, §6
as §5, with “Calif.) […]” for “Calif.)”

[10] = biological target: T5, hCES1 (Homo sapiens, UniProt P23141); settings: in vitro; cited from earlier work
T5 sequence (P23141 18-567): T1 sequence (P23141 18-567)

[11] = biological target: T1, WT CES1; test: MPH hydrolysis to ritalinic acid by S9 of cells expressing WT CES1 (HPLC); type: biochemical; settings: S9 0.5 mg/mL, 37° C., 2 hours, mean ± S.D. (n = 3)
Excerpt: as §3, with “Forty-eight hours after transfection, cells were split at a 1:10 ratio and cultured at 37° C. until cell attachment was observed. Culture medium was then removed and replenished with complete medium supplemented with the selecting antibiotic hygromycin B (100 μg/ml). The cell lines stably expressing WT, p.Gly143Glu, and p.Asp260fs CES1 were obtained only after a minimum 3-week selection process employing hygromycin B. Each generated cell line was identified by both expression detection and enzymatic function assays.” left out
as §1, §6
as §5, with “Calif.) […]” for “Calif.)”

[12] = S9 20 μg/ml, 37° C., 10 min, mean ± S.D. (n = 3)

CC(=O)Oc1ccc([N+](=O)[O-])cc1 [PNPA, p-nitrophenyl acet]
Km [1]: 107 µM
Vmax [1]: 493.9 nmole/min/mg protein and 493.9 ± 14.3 nmole/min/mg protein
Km relative to WT [2]: approximately 9.5 times
Vmax as percent of that of WT CES1 [2]: 5.7%
Km [2, 12]: 950 ± 352 µM
Vmax [2, 12]: 28.0 ± 6.1 nmole/min/mg protein
stability in reaction buffer [3]: spontaneously hydrolyzed
Km [4]: 93.2 ± 9.8 µM
Km relative to WT [5]: comparable to that of WT
Vmax as percent of that of WT CES1 [5]: 18.6%
Vmax [5, 12]: 92.0 ± 2.9 nmole/min/mg protein

COC(=O)[C@@H](c1ccccc1)[C@@H]1CCCCN1 [l-MPH, l-threo-(S,S)-methylphenidate]
catalytic activity towards MPH hydrolysis [6]: failed to show any hydrolytic activity
Cmax of slow metabolizer relative to the mean of the other subjects [7]: approximately 100 fold
Cmax ([7]; slow metabolizer): 62 ng/mL
fraction of the total circulating blood concentrations of MPH ([8]; racemic MPH, enantioselective analytical methods): 1-15%
blood concentration relative to that of d-MPH ([8]; studies that measured both isomers): 1-15%
AUCinf relative to that of d-MPH ([8]; various oral formulations): 1%-15%
catalytic activity towards MPH hydrolysis [9]: failed to show any hydrolytic activity
catalytic efficiency of hCES1 relative to d-MPH [10]: up to 6 fold
Km [11]: 776 ± 162 µM
Vmax [11]: 1701.0 pmole/min/mg protein and 1701.0 ± 196.5 pmole/min/mg protein

Reference: patent US20110020801A1, “Carboxylesterase-1 Polymorphisms and Methods of Use Therefor” (priority 2007, published 2011)
